Test results from ChEMBL document CHEMBL1201862, “PubChem BioAssay data set” (2004).
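Grown in 96-well plates, cells were treated for 48 hours with each compound at five concentrations. Insufficient inhibition: endpoint recorded as highest concentration tested. Abbreviation: GI50, concentration required for 50% inhibition of growth.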 Active and inactive are the calls of the source. No stated cut-off is given here; in the data, active = GI50 up to about 1.1 µM and inactive = higher.

Legend:
Experiment in all cases: growth of human tumour cells (NCI), 48 h
EKVX = test system: EKVX
SK-MEL-2 = test system: SK-MEL-2
UACC-257 = test system: UACC-257
Malme-3M = test system: Malme-3M
HOP-18 = test system: HOP-18
CAKI-1 = test system: CAKI-1
SK-OV-3 = test system: SK-OV-3
SF-539 = test system: SF-539
SNB-19 = test system: SNB-19
SF-268 = test system: SF-268
HCT-15 = test system: HCT-15
HOP-92 = test system: HOP-92
SNB-78 = test system: SNB-78
HT-29 = test system: HT-29
OVCAR-3 = test system: OVCAR-3
DMS-273 = test system: DMS-273
SK-MEL-5 = test system: SK-MEL-5
786-0 = test system: 786-0
OVCAR-5 = test system: OVCAR-5
A498 = test system: A498
UACC-62 = test system: UACC-62
DLD-1 = test system: DLD-1
CCRF-CEM = test system: CCRF-CEM
ACHN = test system: ACHN
M14 = test system: M14
NCI-H23 = test system: NCI-H23
OVCAR-8 = test system: OVCAR-8
UO-31 = test system: UO-31
HCT-116 = test system: HCT-116
OVCAR-4 = test system: OVCAR-4
KM12 = test system: KM12
A549 = test system: A549
SF-295 = test system: SF-295
HOP-62 = test system: HOP-62
RPMI-8226 = test system: RPMI-8226
SR = test system: SR
TK-10 = test system: TK-10
HCC 2998 = test system: HCC 2998
COLO 205 = test system: COLO 205
K562 = test system: K562
SN12C = test system: SN12C
M19-MEL = test system: M19-MEL
LOX IMVI = test system: LOX IMVI
DMS-114 = test system: DMS-114
IGROV-1 = test system: IGROV-1
SNB-75 = test system: SNB-75
SW-620 = test system: SW-620
SK-MEL-28 = test system: SK-MEL-28
NCI-H460 = test system: NCI-H460
KM-20L2 = test system: KM-20L2
MOLT-4 = test system: MOLT-4
LXFL 529 = test system: LXFL 529
HL-60 = test system: HL-60
U-251 = test system: U-251
NCI-H226 = test system: NCI-H226
XF498 = test system: XF498
NCI-H522 = test system: NCI-H522

**Q.** For CC1OC(n2cc(I)c(=O)[nH]c2=O)C=CC1=O (stereo not given), which GI50 (EKVX) is on record?
**A.** 17.5 µM (inactive)

**Q.** What about the GI50 (SK-MEL-2) of the same molecule?
**A.** 17.9 µM (inactive)

**Q.** What about the GI50 (UACC-257) of the same molecule?
**A.** 14.7 µM (inactive)

**Q.** What about the GI50 (Malme-3M) of the same molecule?
**A.** 14.9 µM (inactive)

**Q.** And the GI50 (HOP-18)?
**A.** 16.7 µM (inactive)

**Q.** And the GI50 (CAKI-1)?
**A.** 16 µM (inactive)

**Q.** And the GI50 (SK-OV-3)?
**A.** 29.2 µM (inactive)

**Q.** And the GI50 (SF-539)?
**A.** 14.1 µM (inactive)

**Q.** And the GI50 (SNB-19)?
**A.** 17.7 µM (inactive)

**Q.** What about the GI50 (SF-268) of the same molecule?
**A.** 14.1 µM (inactive)

**Q.** And the GI50 (HCT-15)?
**A.** 17.1 µM

**Q.** And the GI50 (HOP-92)?
**A.** 19.7 µM (inactive)

**Q.** What about the GI50 (SNB-78) of the same molecule?
**A.** 14.7 µM (inactive)

**Q.** What about the GI50 (HT-29) of the same molecule?
**A.** 16.8 µM (inactive)

**Q.** And the GI50 (OVCAR-3)?
**A.** 17.5 µM (inactive)

**Q.** And the GI50 (DMS-273)?
**A.** 17.2 µM (inactive)

**Q.** And the GI50 (SK-MEL-5)?
**A.** 16 µM (inactive)

**Q.** What about the GI50 (786-0) of the same molecule?
**A.** 14 µM (inactive)

**Q.** What about the GI50 (OVCAR-5) of the same molecule?
**A.** 25 µM (inactive)

**Q.** What about the GI50 (A498) of the same molecule?
**A.** 16.1 µM (inactive)

**Q.** What about the GI50 (UACC-62) of the same molecule?
**A.** 17.2 µM (inactive)

**Q.** What about the GI50 (DLD-1) of the same molecule?
**A.** 13.2 µM (inactive)

**Q.** And the GI50 (CCRF-CEM)?
**A.** 2.43 µM (inactive)

**Q.** And the GI50 (ACHN)?
**A.** 17.7 µM (inactive)

**Q.** What about the GI50 (M14) of the same molecule?
**A.** 16.9 µM (inactive)

**Q.** And the GI50 (NCI-H23)?
**A.** 17 µM (inactive)

**Q.** And the GI50 (OVCAR-8)?
**A.** 17.1 µM (inactive)

**Q.** And the GI50 (UO-31)?
**A.** 16.9 µM (inactive)

**Q.** What about the GI50 (HCT-116) of the same molecule?
**A.** 11.8 µM (inactive)

**Q.** And the GI50 (OVCAR-4)?
**A.** 16.3 µM (inactive)

**Q.** And the GI50 (KM12)?
**A.** 13 µM (inactive)

**Q.** What about the GI50 (A549) of the same molecule?
**A.** 26.7 µM (inactive)

**Q.** And the GI50 (SF-295)?
**A.** 18.5 µM (inactive)

**Q.** What about the GI50 (HOP-62) of the same molecule?
**A.** 18.5 µM (inactive)

**Q.** What about the GI50 (RPMI-8226) of the same molecule?
**A.** 13.9 µM (inactive)

**Q.** And the GI50 (SR)?
**A.** 12.6 µM (inactive)

**Q.** And the GI50 (TK-10)?
**A.** 18.6 µM (inactive)

**Q.** What about the GI50 (HCC 2998) of the same molecule?
**A.** 17.5 µM (inactive)

**Q.** What about the GI50 (COLO 205) of the same molecule?
**A.** 17 µM (inactive)

**Q.** What about the GI50 (K562) of the same molecule?
**A.** 3.92 µM (inactive)

**Q.** And the GI50 (SN12C)?
**A.** 18.7 µM (inactive)

**Q.** And the GI50 (M19-MEL)?
**A.** 16.4 µM (inactive)

**Q.** What about the GI50 (LOX IMVI) of the same molecule?
**A.** 6.47 µM (inactive)

**Q.** And the GI50 (DMS-114)?
**A.** 17 µM (inactive)

**Q.** What about the GI50 (IGROV-1) of the same molecule?
**A.** 20.4 µM (inactive)

**Q.** And the GI50 (SNB-75)?
**A.** 17.2 µM (inactive)

**Q.** And the GI50 (SW-620)?
**A.** 13.2 µM (inactive)

**Q.** What about the GI50 (SK-MEL-28) of the same molecule?
**A.** 15.7 µM (inactive)

**Q.** And the GI50 (NCI-H460)?
**A.** 18.8 µM (inactive)

**Q.** And the GI50 (KM-20L2)?
**A.** 17 µM (inactive)

**Q.** And the GI50 (MOLT-4)?
**A.** 14.1 µM (inactive)

**Q.** What about the GI50 (LXFL 529) of the same molecule?
**A.** 10.8 µM (inactive)

**Q.** What about the GI50 (HL-60) of the same molecule?
**A.** 6.82 µM (inactive)

**Q.** And the GI50 (U-251)?
**A.** 14.4 µM (inactive)

**Q.** And the GI50 (NCI-H226)?
**A.** 17.6 µM (inactive)

**Q.** What about the GI50 (XF498) of the same molecule?
**A.** 19.2 µM (inactive)

**Q.** For COc1ccc2c(c1)[n+]([O-])c(-c1ccccc1)c(N)[n+]2[O-], which GI50 (EKVX) is on record?
**A.** 43.8 µM (inactive)

**Q.** And the GI50 (SK-MEL-2)?
**A.** 46 µM (inactive)

**Q.** And the GI50 (UACC-257)?
**A.** 21.2 µM (inactive)

**Q.** What about the GI50 (Malme-3M) of the same molecule?
**A.** 20.9 µM (inactive)

**Q.** And the GI50 (HOP-18)?
**A.** 33.6 µM (inactive)

**Q.** What about the GI50 (CAKI-1) of the same molecule?
**A.** 37.2 µM (inactive)

**Q.** What about the GI50 (SK-OV-3) of the same molecule?
**A.** > 100 µM (inactive)

**Q.** What about the GI50 (SF-539) of the same molecule?
**A.** 32.4 µM (inactive)

**Q.** What about the GI50 (SNB-19) of the same molecule?
**A.** 42.5 µM (inactive)

**Q.** What about the GI50 (SF-268) of the same molecule?
**A.** 30.5 µM (inactive)

**Q.** And the GI50 (HCT-15)?
**A.** 35.3 µM

**Q.** And the GI50 (SNB-78)?
**A.** 44.8 µM (inactive)

**Q.** And the GI50 (HT-29)?
**A.** 52.7 µM (inactive)

**Q.** And the GI50 (OVCAR-3)?
**A.** 39.8 µM (inactive)

**Q.** And the GI50 (DMS-273)?
**A.** 34.4 µM (inactive)

**Q.** And the GI50 (NCI-H522)?
**A.** 17.1 µM (inactive)

**Q.** And the GI50 (SK-MEL-5)?
**A.** 18 µM (inactive)

**Q.** And the GI50 (786-0)?
**A.** 63.2 µM (inactive)

**Q.** And the GI50 (OVCAR-5)?
**A.** 94 µM (inactive)

**Q.** And the GI50 (A498)?
**A.** 69.3 µM (inactive)

**Q.** And the GI50 (UACC-62)?
**A.** 30.3 µM (inactive)

**Q.** And the GI50 (DLD-1)?
**A.** 45.6 µM (inactive)

**Q.** And the GI50 (CCRF-CEM)?
**A.** 53 µM (inactive)

**Q.** What about the GI50 (ACHN) of the same molecule?
**A.** 52.6 µM (inactive)

**Q.** And the GI50 (M14)?
**A.** 29.4 µM (inactive)

**Q.** And the GI50 (NCI-H23)?
**A.** 23.9 µM (inactive)

**Q.** What about the GI50 (OVCAR-8) of the same molecule?
**A.** 37.2 µM (inactive)

**Q.** What about the GI50 (UO-31) of the same molecule?
**A.** 63.1 µM (inactive)

**Q.** What about the GI50 (OVCAR-4) of the same molecule?
**A.** 47.3 µM (inactive)

**Q.** And the GI50 (KM12)?
**A.** 63.4 µM (inactive)

**Q.** What about the GI50 (A549) of the same molecule?
**A.** 37.1 µM (inactive)

**Q.** And the GI50 (SF-295)?
**A.** 67.1 µM (inactive)

**Q.** What about the GI50 (HOP-62) of the same molecule?
**A.** 39 µM (inactive)

**Q.** And the GI50 (RPMI-8226)?
**A.** 77.1 µM (inactive)

**Q.** And the GI50 (TK-10)?
**A.** > 100 µM (inactive)

**Q.** And the GI50 (HCC 2998)?
**A.** 54 µM (inactive)

**Q.** What about the GI50 (COLO 205) of the same molecule?
**A.** 20.4 µM (inactive)

**Q.** And the GI50 (K562)?
**A.** 45.2 µM (inactive)

**Q.** What about the GI50 (SN12C) of the same molecule?
**A.** 51.8 µM (inactive)

**Q.** What about the GI50 (M19-MEL) of the same molecule?
**A.** 39.2 µM (inactive)

**Q.** And the GI50 (LOX IMVI)?
**A.** 44.1 µM (inactive)

**Q.** What about the GI50 (DMS-114) of the same molecule?
**A.** 25.4 µM (inactive)

**Q.** And the GI50 (IGROV-1)?
**A.** 43.4 µM (inactive)

**Q.** What about the GI50 (SNB-75) of the same molecule?
**A.** > 100 µM (inactive)

**Q.** And the GI50 (SW-620)?
**A.** 39.3 µM (inactive)

**Q.** What about the GI50 (SK-MEL-28) of the same molecule?
**A.** 25 µM (inactive)

**Q.** What about the GI50 (NCI-H460) of the same molecule?
**A.** 35.6 µM (inactive)

**Q.** And the GI50 (KM-20L2)?
**A.** 46 µM (inactive)

**Q.** And the GI50 (MOLT-4)?
**A.** 71.3 µM (inactive)

**Q.** And the GI50 (LXFL 529)?
**A.** 30.5 µM (inactive)

**Q.** And the GI50 (HL-60)?
**A.** 41.6 µM (inactive)

**Q.** What about the GI50 (U-251) of the same molecule?
**A.** 31.3 µM (inactive)

**Q.** And the GI50 (NCI-H226)?
**A.** > 100 µM (inactive)

**Q.** And the GI50 (XF498)?
**A.** 35 µM (inactive)
